Results filed as inconclusive are left out. Activity calls are given as the source filed them.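 The calls were made as follows: active = compounds whose fitted half-maximal potency is at most ten times their top valid tested dose, reducing viability; inconclusive = flat curve with 30 to 70% viability loss, or poor fit; inactive = the rest.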

In experiment [1] the test system is BJeHLT fibroblasts viability, Alamar Blue fluorescence, 48 h. The experiment can be described thus: viability loss in BJeHLT fibroblasts, dose response, counter-screen for Ras selective lethality project, cell-based, plate reader, dry powder, set 4 (AID 540314).
Assay in experiment [2]: as above
The following applies: BJeHLT fibroblasts viability, Alamar Blue fluorescence, 48 h; at 48 µM (top of the series). On the technique in general: The colour change of resazurin is a common sign of viable cells or microbes.

With `Cc1onc(C(=O)N2CCN(C(c3ccc(Cl)cc3)c3ccc(Cl)cc3)CC2)c1[N+](=O)[O-]`, in experiment [1], the AC50 (commonly the midpoint of the concentration-response curve, whichever way the signal moves) is 0.844 µM. With `Cc1onc(C(=O)N2CCN(C(c3ccccc3)c3ccccc3)CC2)c1[N+](=O)[O-]`, the AC50 in experiment [1] was 7.25 µM. On the same count and under the same terms, to `CCOc1ccccc1-n1c(C(C)N2CCN(C(=O)COc3ccc(Cl)cc3)CC2)nc2ccccc2c1=O` (stereo not given) belongs 4.19 µM. Still for that read-out and setting: to `COC(=O)c1ccc([C@@H]2c3[nH]c4ccccc4c3C[C@@H](C(=O)OC)N2C(=O)CCl)cc1` belongs 1.57 µM; to `Cc1onc(C(=O)N2CCN(C(c3ccccc3)c3ccc(Cl)cc3)CC2)c1[N+](=O)[O-]` (stereo not given), 2.04 µM. On the same count and under the same terms, to `Cc1onc(C(=O)N2CCN(C(c3ccc(F)cc3)c3ccc(F)cc3)CC2)c1[N+](=O)[O-]` belongs 2.12 µM; to `O=C(c1ccc([N+](=O)[O-])o1)N1CCN(C(c2ccc(F)cc2)c2ccc(F)cc2)CC1`, 14.8 µM; to `COc1ccc(C(c2ccc(OC)cc2)N2CCN(C(=O)c3ccc([N+](=O)[O-])o3)CC2)cc1`, 6.87 µM. As for `O=C(NCCNC(c1ccccc1)c1ccccc1)c1ccc([N+](=O)[O-])o1`, the half-maximal activity concentration (AC50) in experiment [1] was 4.66 µM. In the case of `Cc1onc(C(=O)N2CCN(Cc3ccccc3)CC2)c1[N+](=O)[O-]`, the activity change, negative = less viable in experiment [2] was 8.05% (inactive).

The record behind these values is PubChem BioAssay AID540314 (Broad Institute, 2011).
